Series [1] deals with T1, Peroxisome proliferator-activated receptor gamma (Homo sapiens, UniProt P37231).
T1 sequence (P37231 whole entry): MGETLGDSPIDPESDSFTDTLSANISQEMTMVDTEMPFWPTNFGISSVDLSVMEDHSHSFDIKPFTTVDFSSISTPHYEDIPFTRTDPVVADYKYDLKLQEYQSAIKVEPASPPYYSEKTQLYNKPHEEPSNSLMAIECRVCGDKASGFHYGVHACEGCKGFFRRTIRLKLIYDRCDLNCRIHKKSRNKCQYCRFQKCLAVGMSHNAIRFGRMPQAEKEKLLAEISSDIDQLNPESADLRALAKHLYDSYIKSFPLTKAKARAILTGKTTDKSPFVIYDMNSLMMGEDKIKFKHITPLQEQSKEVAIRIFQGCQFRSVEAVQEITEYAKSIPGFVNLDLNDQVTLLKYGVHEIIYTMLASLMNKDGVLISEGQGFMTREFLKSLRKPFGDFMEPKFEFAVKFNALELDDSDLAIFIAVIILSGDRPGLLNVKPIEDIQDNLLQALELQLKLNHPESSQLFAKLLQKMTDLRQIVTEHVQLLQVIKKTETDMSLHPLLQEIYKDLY
Description: In vitro agonist activity tested for transactivation in human PPAR gamma-Gal4 chimeric COS-1 cells

Series [2] concerns the target T2, Peroxisome proliferator-activated receptor alpha (Homo sapiens, UniProt Q07869).
T2 sequence (Q07869 whole entry): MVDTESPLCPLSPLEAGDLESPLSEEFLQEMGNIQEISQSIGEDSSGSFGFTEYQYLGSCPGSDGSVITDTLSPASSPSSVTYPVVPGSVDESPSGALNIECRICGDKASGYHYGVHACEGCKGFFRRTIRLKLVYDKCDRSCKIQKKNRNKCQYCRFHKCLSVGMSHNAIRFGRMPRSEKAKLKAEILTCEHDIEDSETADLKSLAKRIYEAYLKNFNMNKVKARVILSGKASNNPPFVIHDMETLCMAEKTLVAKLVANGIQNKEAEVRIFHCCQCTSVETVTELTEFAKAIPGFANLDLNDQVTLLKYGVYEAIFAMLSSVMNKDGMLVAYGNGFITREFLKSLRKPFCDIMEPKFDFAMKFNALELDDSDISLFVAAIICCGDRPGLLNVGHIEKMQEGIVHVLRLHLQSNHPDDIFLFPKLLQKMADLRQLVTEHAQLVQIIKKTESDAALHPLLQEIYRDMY
Kind of series: In vitro agonist activity tested for transactivation in human PPAR alpha-Gal4 chimeric COS-1 cells. In kind it is functional, cell-based.

A short description of series [3]: Oral bioavailability in rat (dose 2 mg/kg). It counts as ADME, organism-based. The conditions noted are these: in vivo.
Series [4] has as its target T2, Peroxisome proliferator-activated receptor alpha. Kind of series: In vitro binding affinity against human PPAR alpha (peroxisome proliferator-activated alpha receptor).
A short description of series [5]: In vivo glucose correction was determined in male db/db mice after administration at 10 mg/kg. In kind it is functional, Mus musculus.
Series [6] concerns Rattus norvegicus. Kind of series: Dose-normalized AUC was determined in rat after peroral administration (2 mg/kg). To be noted: in vivo, po. In kind it is ADME, organism-based.
Series [7] is described as follows: Half-life was determined in rat after intravenous administration (0.5 mg/kg). It counts as ADME, organism-based. The conditions noted are these: in vivo.
A short description of series [8]: In vivo triglyceride correction was determined in male db/db mice after administration at 10 mg/kg. It counts as functional, Mus musculus.
In series [9] the target is T3, Peroxisome proliferator-activated receptor delta (Homo sapiens, UniProt Q03181).
T3 sequence (Q03181 whole entry): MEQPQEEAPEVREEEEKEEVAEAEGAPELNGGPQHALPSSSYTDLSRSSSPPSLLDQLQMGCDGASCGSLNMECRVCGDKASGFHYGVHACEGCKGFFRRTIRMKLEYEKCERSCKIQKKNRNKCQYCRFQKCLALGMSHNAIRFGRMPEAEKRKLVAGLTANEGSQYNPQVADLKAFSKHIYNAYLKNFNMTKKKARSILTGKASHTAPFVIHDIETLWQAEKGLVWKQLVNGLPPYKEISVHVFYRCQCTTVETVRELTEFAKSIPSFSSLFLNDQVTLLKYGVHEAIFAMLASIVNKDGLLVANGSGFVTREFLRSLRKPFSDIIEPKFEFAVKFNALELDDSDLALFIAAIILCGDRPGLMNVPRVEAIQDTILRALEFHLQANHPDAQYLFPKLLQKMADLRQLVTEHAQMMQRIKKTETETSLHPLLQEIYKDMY
Description: In vitro agonist activity tested for transactivation in human PPAR delta-GAL4 chimeric COS-1 cells

Series [10] concerns the target T3, Peroxisome proliferator-activated receptor delta. This is another data set of the same source.
Description: In vitro binding affinity against human PPAR delta (peroxisome proliferator-activated delta receptor)
In series [11] the test system is Mus musculus. Kind of series: In vivo glucose correction was determined in male db/db mice after administration at 5 mg/kg. In kind it is functional.
In series [12] the target is T1, Peroxisome proliferator-activated receptor gamma. This is another data set of the same source.
Description: In vitro binding affinity against human PPAR gamma (peroxisome proliferator-activated gamma receptor)
Series [13] deals with Rattus norvegicus. Description: Plasma clearance was determined in rat after intravenous administration (0.5 mg/kg). In kind it is functional, organism-based.
The subject of series [14] is Mus musculus. Kind of series: In vivo triglyceride correction was determined in male db/db mice after administration at 5 mg/kg. It counts as functional.

A word on the EC50: it is the concentration at which the effect is half-maximal. Lower therefore signals greater potency. Usually bioavailability stands for the share of a dose that reaches the circulation, judged against a reference dose that is usually intravenous. Lower therefore signals little systemic uptake. As a reminder, the IC50 is the concentration that inhibits the measured activity by half. High values mean lower potency, low ones higher potency. Broadly, the AUC is the area under the concentration-time curve, a measure of exposure. The term half-life denotes the time needed for the level to fall by half in the phase considered. Read a high half-life as slow loss.

In the case of `CCCc1cc(Oc2ccc(S(C)(=O)=O)cc2)ccc1OCCCOc1ccc(C2SC(=O)NC2=O)cc1` (centres undefined), the concentration for a half-maximal effect (EC50) in [1] is 0.12 µM; in series [2], above 3 µM; in series [9], above 3 µM. In [3], this compound came in with a bioavailability of 84%. The results for the IC50 in series [4], in series [10] and in [12] were above 50 µM, above 50 µM and 0.25 µM, respectively. Also, the Glucose correction is 86% in series [5] and 62% in series [11]. The same compound registered an AUC in series [6] of 11.8 µM·h. Moreover, the half-life in series [7] is 2.8 h. Moreover, the Triglyceride correction is on record as 78% in series [8] and 55% in series [14]. The same compound yielded a CL (mL.min-1.kg-1) in [13] of 2.1.
